The text below walks through data of publication PMC10861593, “Kisspeptin-10 binding to Gpr54 in osteoclasts prevents bone loss by activating Dusp18-mediated dephosphorylation of Src” (Nature Communications, 2024).

“Also recorded” adds a separate entry of the source.

For one test, the system named is Src (Y416). Kind of test: IB of Src (Y416) phosphorylation in BMMs / osteoclasts. It counts as cell-based, mouse. The note with it: for Src phosphorylation: Kp-10 20 min; for phosphorylation of Src (Y416): indicated dose of Kp-10 for 1 h; for phosphorylation of Src: Kp-10 1 h. The method, then:
Fig. 1 Kp-10 /Gpr54 governs osteoclasts formation and bone resorption mainly via suppression of Src phosphorylation. a–d IB analysis of whole cell lysates (WCL) derived from BMMs isolated from eight-week-old wild-type (WT) and Gpr54^−/− mice. BMMs were starved in serum-free α-MEM for 4 h and then treated with 100 ng/mL RANKL for different time (a) and quantification of protein levels (b), incubated with indicated dose of Kp-10 for 1 h (c) and quantification of protein levels (d). e–i BMMs isolated from eight-week-old WT and Gpr54^−/− mice were stimulated with M-CSF (10 ng/ml) and RANKL (50 ng/ml) for 5–7 days. Representative TRAP staining images are shown. Scale bar, 250 µm (e) and the number of osteoclasts/well was counted (f). Phalloidin staining of F-actin ring is shown. Scale bar, 250 µm, 50 µm (g), the area (h) and nuclei numbers (i) per actin ring were counted. j, k BMMs isolated from eight-week-old WT and Gpr54^−/− mice were cultured in vitro on dentin slices, and after incubation with M-CSF (10 ng/ml) and RANKL (50 ng/ml) for 5–7 days, the pits formed by osteoclast absorption activity were scanned by confocal microscopy (x, y, and z sections). Scale bar, 125 µm (j), and pits depth were quantified by confocal microscopy (k). Data represent means ± SEM. P values were determined by two-way ANOVA analysis (b), one-way ANOVA analysis (d, f, k), or two-tailed Student’s t-test (h, i), Representative results were obtained from at least three independent experiments. Source data are provided as a Source Data file.
Whole-cell proteins were extracted using 1x RIPA buffer (25 mM Tris, pH7.5, 150 mM NaCl, 0.5% Sodium deoxycholate, 1% Triton-X-100) supplemented with protease inhibitors (Complete Mini, Roche) and phosphatase inhibitors (phosphatase inhibitor cocktail set I and II, Calbiochem). Immunoprecipitation and immunoblotting with indicated antibodies were performed as described in Supplementary Table 1. Image Jsoftware (V1.52) was used for quantification analysis. Uncropped and unprocessed blots are presented in the Supplementary Information file.
Supplementary Fig. 1 a, b IB analysis of whole cell lysates (WCL) derived from BMMs isolated from eight-week-old wild-type (WT) and Gpr54 ^-/- mice. BMMs were starved in serum-free α-MEM for 4 hours and then treated with indicated doses of Kp-10 for 1 hour and followed by the addition of 50 ng/mL M-CSF, 100 ng/mL RANKL for another 30 minutes (a) and quantification of protein levels (b). c, d Elisa assay showing Kisspeptins derived from the process of osteoblast or osteoclast differentiation in vitro. Kisspeptins normalization was based on the same number of MSCs, BMMs which were seeded on the plates before differentiation stimulation (c), and serum Kisspeptins from Sham (n=8) and OVX (n=7) mice (d). Representative results were obtained from at least three independent experiments. Error bars are ± SEM. P-values were determined by one-way ANOVA analysis (a) or two-tailed Student’s t-test (b). *P <0.05, ***P <0.001, ****P <0.0001. Representative results were obtained from at least three independent experiments. Source data are provided as a Source Data file.

Test [1] relates to Gpr54, Src and Dusp18 co-localization. Kind of test: IF staining / TIRF microscopy co-localization in pre-osteoclasts. It counts as cell-based, mouse. The note with it: 10 nM Kp-10 20 min. The method, then: For endogenous IF staining, BMMs were seeded on confocal dishes and induced by 50 ng/ml RANKL and 10 ng/ml M-CSF for 2 days, and subsequently incubated with or without Kp-10 for 20 min. Cells were fixed in 10% TCA and incubated with anti-Gpr54 (Cell Signaling Technologies, 13776, 1:100), anti-Dusp18 (Santa Cruz., sc-376923, 1:100), or anti-Src (Cell Signaling Technologies, 2110, 1:400) or anti-Src (Cell Signaling Technologies, 2109, 1:400) overnight. IF staining of membrane colocation of Gpr54 with Src or Dusp18, and Src with Dusp18 were detected by Alexa Fluor™ 594 Tyramide SuperBoost™ Kit (Invitrogen, B40925) and Alexa Fluor™ 488 Tyramide SuperBoost™ Kit (Invitrogen, B40912) according to manufacturer’s instructions. The images were obtained by total internal reflection fluorescence (TIRF) microscopy (Ti2-E + H-TIRF, Nikon).

The subject of test [2] is giant cell tumor of bone (GCT) cells. As to the kind of experiment: TRAP assay of osteoclast formation in human giant cell tumor of bone (GCT) cells. It is filed as cell-based. As to conditions: Kp-10 5–7 days. The procedure: BMMs (5 × 10^3 cells/well) were seeded into 96-well plates with a bone slice and incubated with M-CSF (10 ng/ml) and RANKL (50 ng/ml) with or without Kp-10, and the culture medium was changed every other day for 5–7 days. Osteoclasts were fixed and stained by phalloidin and DAPI. “Pits” on bone slice after osteoclast resorption were fixed with 4% Glutaraldehyde and stained with 1% toluidine blue, and pit depth was examined by laser-scanning confocal microscopy. For primary cultures of giant-cell tumor of bone (GCTB) cells, the use of all patient-derived tumor specimens was approved by the Institutional Review Board and the research ethics committee of Shanghai Changzheng Hospital, which appeared in the proceedings of the meeting of the Ethics Committee on 18 November 2014 (report number: 2014090). Informed consent obtained from all tissue donors was written. The GCTB cells were isolated from tumor samples derived from tumor resections in Shanghai Changzheng Hospital, 1 × 10^6 GCTB cells were seeded in a 24-well plate. Cells were stimulated with indicated doses of Kp-10 for 5–7 days. The medium was changed every 2 days. Osteoclasts were fixed and stained using the TRAP-staining kit (Sigma-Aldrich, 387A-1KT).

Test [3] relates to osteoclast bone resorption. As to the kind of experiment: pit assay (bone resorption). It counts as cell-based, mouse. As to conditions: for bone resorption: dentin slices, 5–7 days.

Consider Kisspeptin-10 [Kp-10], for which the “Src phosphorylation, 10 nM” value with Src (Y416) (10 nM Kp-10) was “more obviously blocked”. Besides, the values for the Src phosphorylation entry in the test with Src (Y416) (Dusp18-depleted BMMs) and in the test with Src (Y416) (WT pre-osteoclasts/BMMs (Dusp18 experiment)) were “failed to do so” and “blocked Src phosphorylation”, respectively. Also, the “phosphorylation of Src (Y416)” value in the test with Src (Y416) (Gpr54 WT osteoclasts/BMMs) is given as “effectively reduced the phosphorylation of Src (Y416)”; in the test on Src (Y416) (Gpr54 knockout osteoclasts/BMMs), “failed to inhibit Src (Y416) phosphorylation”. Besides, the “phosphorylation of Src” value in the test on Src (Y416) (Gq/11 KO BMMs) was “failed to have a significant effect”; with Src (Y416) (WT BMMs (Gq/11 experiment)), “inhibited the phosphorylation of Src”. For the same substance, in test [1], the “co-localization of Dusp18 with Gpr54 in the plasma membrane” value was “colocalized with Gpr54 in the plasma membrane especially after treatment of Kp-10”. Moreover, in test [1], the “co-localization of Dusp18 with Src in the plasma membrane” value is recorded as “colocalized with Src in the plasma membrane especially after treatment with Kp-10”. Moreover, the “co-localization of Src with Gpr54 on the membrane” value in test [1] was “co-localized on the membrane with Gpr54 especially after Kp-10 stimulation”. The osteoclast formation entry in test [2] is recorded as “suppressed osteoclast formation; also recorded: dose-dependently suppressed”. Besides, the “bone resorption (pit formation, pit depth)” value in test [3] (Dusp18 WT osteoclasts) is given as “bone resorption was suppressed”. For the same substance, the bone resorption result in test [3] (Gpr54-WT osteoclasts) is “suppressed bone resorption”; in test [3] (Gpr54 knockout osteoclasts) it was “did not have a significant effect”.
